Consider four compounds from US12043602B2, “Fendiline derivatives” (The Board of Regents of the University of Texas System, priority 2019, dated 2024).

The subject of data set [1] is MiaPaCa-2 (Mut) pancreatic tumor cells. Description: CyQUANT proliferation assay. Conditions: Homo sapiens. Format: cell-based. How it is done:
Madine Darby Canine Kidney epithelial cells (MDCK) stably co-expressing mGFP-tagged full length oncogenic mutant K-Ras (GFP—K-RASG12V) or mGFP-LactC2 (peptide probe for phosphatidylserine) and mCherry-tagged to the amino acids 179-189 of H-RasC181S, C184S (mCherry-CAAX, localizes primarily to endomembranes) were grown in DMEM-high glucose/sodium pyruvate/10% FBS. The medium was supplemented with 1× Penicillin/Streptomycin for fluorescence microscopy assays, to avoid any microbial contamination from the test compounds added. KLE and Hec50 cells were maintained in DMEM-F-12 medium supplemented with 10% FBS. Hec-1A and Hec-1B cells were grown in McCoy's 5a medium supplemented with 10% FBS. ESS-1 cells were grown in RPMI 1640 medium supplemented with 20% FBS. MPanc96 cells were grown in DMEM supplemented with 10% FBS, MiaPaCa-2 cells in DMEM supplemented with 10% FBS and 2.5% horse serum and all other cell lines were grown in RPMI 1640 supplemented with 10% FBS. All cancer cell media were supplemented with ×Penicillin/Streptomycin. All cell lines were grown at 37° C. with 5% CO2.
Cells were seeded in 96-well plates. After 24 h, fresh growth medium supplemented with 0.1% vehicle (DMSO), or various concentrations of drugs was added and cells were grown for 72 h. Cell numbers were quantified using the CyQUANT® Cell Proliferation Assay Kit (Molecular Probes, Life Technologies), according to the manufacturer's protocol. Fluorescence measurement was used as a measure of live cell number.

The subject of data set [2] is blood vessels in tumors. Description: Blood vessel lumen area in tumor sections. Details: species or system nu/nu mice. Conditions: mouse, in vivo. How it is done:
FIG. 8A-E. (A) Nu/nu mice implanted with MiaPaCa-2 tumors were treated with vehicle (DMSO) or compounds intraperitoneally and tumor sizes were measured with an external caliper every 3-4 days. (B) Tumor sections were stained with GFP-Lys. (C) Tumor sections were stained with antibodies against pERK. (D) Tumor sections were stained with cleaved caspase 3. (E) Blood vessel lumen area was also measured in tumor sections.
(§1) Immunohistochemistry. 4-5 μm sections were deparaffinized, rehydrated, and treated with 10 mM sodium citrate for heat induced antigen retrieval. After quenching endogenous peroxidase, and blocking with 2.5% normal goat serum (Vector Laboratories S-1012), sections were incubated overnight at 4° C. with primary antibody diluted in blocking solution as recommended by manufacturer (Cell Signaling). Controls were incubated with diluted normal rabbit IgG. After incubation with biotinylated secondary antibody diluted 1:250 in blocking serum for 45 min at rt, sections were incubated with VECTASTAIN ABC reagent for 30 min, and for development of the DAB chromogen the Quanto substrate was used. Slides were counter stained with Hematoxylin. Five fields per stained section per xenograft were photographed at 10X. CC3+ and pERK+ area and number of events per field were quantitated via automated image analysis (NIS Elements BR analysis ver. 4.13.04). Vessel number and lumen area per field used the same software with manual settings to trace vessel wall contours. Antibodies used are as follows: CC3: Cell Signaling #9661, use at 1:300. (Cleaved Caspase-3 (Asp175) Antibody. Rabbit polyclonal. pERK: Cell Signaling #4370: Phospho-p44/42 MAPK (Erk1/2) (Thr202/Tyr204) (D13.14.4E) XP Rabbit mAB. CD31 (PECAM-1) (D8V9E) XP Rabbit mAB (Cell signal # (Cell signal #77699). Normal rabbit IgG: Santa Cruz #sc-3888. Concentration is 50 μg/mL or 50 ng/μL. Prepared with 5 μg in 200 μL blocking solution. Goat Anti-Rabbit IgG Biotin Conjugate: Calbiochem #OS03B, Concentration=1.2 mg/mL. Recommended to be used for IHC at 1 μg/mL.

Data set [3] concerns the target SMPD1-GFP (ASM) (Homo sapiens (Human), UniProt P17405). The data set can be described thus: Western blot of SMPD1-GFP levels. Format: cell-based. Conditions: 5 μM compounds for 48 h. How it is done:
FIG. 6A-C. (A) Dose response curves quantifying the extent of KRASG12V and LactC2 mislocalization after 48 h treatment with compounds. Mislocalization was quantified using Manders coefficients as the fraction of mCherry-CAAX co-localizing with mGFP-KRASG12V or GFP-LactC2. (B) ASM activity in cell stably expressing GFP-tagged SMPD1 treated with DMSO or 5 μM compound for 48 h. (C) Representative western blots and quantitation of SMPD1-GFP levels in cells treated with 5 μM compounds for 48 h. (D) Representative confocal images of MDCK cells stably co-expressing mGFP-KRASG12V and mCherry-CAAX treated with 10 μM compound 6 or 1 μM of compounds 12f (NY0244), 12h (NY0331) or 22 (NY0335) for 48 h (-ASM), then incubated with recombinant ASM in the continued presence of drugs for a further 60 min (+ASM). Mislocalization was quantified using Manders coefficients as the fraction of mCherry-CAAX co-localizing with mGFP-KRASG12V.
Western Blotting. […] Signals were detected by enhanced chemiluminescence (Thermo Fisher Scientific) and imaged using a FluorChemQ imager (Alpha Inotech). Quantification of intensities was performed using FluorChemQ software.
For orientation: In western blotting, separated proteins are transferred to a membrane and probed.

Data set [4] relates to cleaved caspase 3 (CC3). The data set can be described thus: Immunohistochemistry of tumor sections, cleaved caspase 3. Particulars: mouse, in vivo. On the set-up: species or system nu/nu mice. How it is done:
as §1, with “(Cleaved Caspase-3 (Asp175) Antibody. Rabbit polyclonal. pERK: Cell Signaling #4370: Phospho-p44/42 MAPK (Erk1/2) (Thr202/Tyr204) (D13.14.4E) XP Rabbit mAB. CD31 (PECAM-1) (D8V9E) XP Rabbit mAB (Cell signal # (Cell signal #77699). Normal rabbit IgG: Santa Cruz #sc-3888. Concentration is 50 μg/mL or 50 ng/μL. Prepared with 5 μg in 200 μL blocking solution. Goat Anti-Rabbit IgG Biotin Conjugate: Calbiochem #OS03B, Concentration=1.2 mg/mL. Recommended to be used for IHC at 1 μg/mL.” left out

Where [5] appears, read: MIA PaCa-2, 72 h, read-out: IC50 proliferation MiaPaCa-2 (Mut).
Setting [6] is: MIA PaCa-2, Table 11, pancreatic, read-out: IC50 (μM) MiaPaCa-2 (Mut).

Molecules are shown by their SMILES. Entries after “also recorded” stand apart in the source; their conditions may differ. Where two headings read alike, the source gives them in different places.

With `CC(NCCC(c1ccccc1)c1ccccc1)c1ccccc1` (stereo not drawn) [Fendiline], the IC50 was determined as 9.17 µM in data set [1] (setting [5]) and 9.2 ± 0.6 µM in data set [1] (setting [6]). Moreover, the “blood vessel dilation / vasodilatory effect in tumors” value in data set [2] is “dilated”.

For `COc1ccc([C@@H](C)N(CC=C(c2ccccc2)c2ccccc2)CCN2CCN(C)CC2)cc1` [NY0244, (R)-N-(1-(4-methoxyphenyl)ethyl)-N-(2-(4-methylpiperazin-1-yl)ethyl)-3,3-diphenylprop-2-en-1-amine], the IC50 was 3.03 µM in data set [1] (setting [5]) and 3 µM in data set [1] (setting [6]). Further, the “cellular levels of ASM (SMPD1-GFP)” value in data set [3] is reported as “reduced the levels of ASM”.

As for `COc1ccc([C@@H](C)N(CC=C(c2ccccc2)c2ccccc2)CCN2CCCC2)cc1` [NY0331, (R)-N-(1-(4-methoxyphenyl)ethyl)-3,3-diphenyl-N-(2-(pyrrolidin-1-yl)ethyl)prop-2-en-1-amine], the IC50 stood at 3.36 µM in data set [1] (setting [5]) and 3.1 µM in data set [1] (setting [6]). In addition, the “cellular levels of ASM (SMPD1-GFP)” value in data set [3] is given as “reduced the levels of ASM”. In addition, the “cleaved caspase 3 (CC3) in tumors” value in data set [4] is “increased”. Besides, the “blood vessel dilation / vasodilatory effect in tumors” value in data set [2] (listed as 12h) was “no vasodilatory effects; also recorded: not changed”.

Regarding `COc1ccc([C@@H](C)N(CC=C(c2ccccc2)c2ccccc2)CCCN2CCN(C)CC2)cc1` [NY0335, (R)-N-(1-(4-methoxyphenyl)ethyl)-N-(3-(4-methylpiperazin-1-yl)propyl)-3,3-diphenylprop-2-en-1-amine], the IC50 came out at 2.79 µM in data set [1] (setting [5]) and 2.8 µM in data set [1] (setting [6]). The “cleaved caspase 3 (CC3) in tumors” value in data set [4] is listed as “increased”. In data set [2] (listed as 22), the “blood vessel dilation / vasodilatory effect in tumors” value is listed as “no vasodilatory effects; also recorded: not changed”.
